Experimental data: ChEMBL document CHEMBL1938330, “Inhibitory effects of polyphenols toward HCV from the mangrove plant Excoecaria agallocha L” (Bioorg Med Chem Lett, 2012)

Assays:
[1] = Inhibition of Hepatitic C virus NS3/4A protease by FRET assay; parameters: species or system Hepacivirus hominis
Hepatitis C virus = assay: Antiviral activity against Hepatitis C virus infected in human Huh7.5 cells assessed as inhibition of viral replication after 96 hrs by quantitative RT-PCR analysis; assay type: functional, organism-based, Hepacivirus hominis; conditions: Huh-7, 96 h
[2] = Cytotoxicity against human Huh7.5 cells after 96 hrs by MTT assay; assay type: cell-based, Huh-7
[3] = Selectivity index, ratio of CC50 for human Huh7.5 cells to EC50 for Hepatitis C virus infected in human HuH7.5 cells; assay type: toxicity, cell-based, Huh-7; conditions: read-out: Ratio CC50/EC50

Work on `COc1cc(/C=C/CO[C@@H]2O[C@H](CO)[C@@H](O)[C@H](O)[C@H]2O)cc(OC)c1O` yielded an IC50 [1] greater than 10 µg/mL.

For `COc1ccc(CO)cc1O[C@@H]1O[C@H](COC(=O)c2cc(O)c(O)c(O)c2)[C@@H](O)[C@H](O)[C@H]1O`, the IC50 [1] was greater than 10 µg/mL.

Work on `COc1cc(CO[C@@H]2O[C@H](CO)[C@@H](O)[C@H](O)[C@H]2O)cc(OC)c1O` yielded an IC50 [1] greater than 10 µg/mL.

With `O=C(O[C@@H]1O[C@@H]2COC(=O)c3cc(O)c(O)c(O)c3-c3c(cc(O)c(O)c3O)C(=O)O[C@@H]([C@@H]2O)[C@H]1OC(=O)c1cc(O)c(O)c(O)c1)c1cc(O)c(O)c(O)c1` the IC50 [1] was greater than 10 µg/mL.

Compound `O=C(O[C@@H]1O[C@@H]2COC(=O)c3cc(O)c(O)c(O)c3-c3c(cc(O)c(O)c3O)C(=O)O[C@H]([C@H]1O)[C@@H]2OC(=O)c1cc(O)c(O)c(O)c1)c1cc(O)c(O)c(O)c1` has an IC50 [1] greater than 10 µg/mL.

`O=C(O)C[C@@H]1C(=O)O[C@H]2[C@@H]3OC(=O)c4cc(O)c(O)c(O)c4-c4c(cc(O)c(O)c4O)C(=O)OC[C@H]2O[C@@H](OC(=O)c2cc(O)c(O)c(O)c2)[C@@H]3OC(=O)c2cc(O)c(O)c3c2[C@H]1[C@H](O)C(=O)O3` [CHEBULAGIC ACID] gave an IC50 ([1]; read-out: IC50) of 9.03 µM, an EC50 (Hepatitis C virus) of 22.2 µM and a CC50 at 96 h [2] of 105 µM. For the same compound, the selectivity ratio [3] was 4.7.

With `Oc1cc(O)c2c(c1)O[C@H](c1ccc(O)c(O)c1)[C@@H](O)C2` [CIANIDANOL] the IC50 [1] was greater than 10 µg/mL.

`COc1ccc2c(O[C@@H]3C[C@H]4C(=O)N[C@]5(C(=O)O)C[C@H]5/C=C\CCCCC[C@H](NC(=O)OC5CCCC5)C(=O)N4C3)cc(-c3csc(NC(C)C)n3)nc2c1` [CILUPREVIR] gave an IC50 ([1]; read-out: IC50) of 1.54 µM.

`O=C(O[C@@H]1O[C@@H]2COC(=O)c3cc(O)c(O)c(O)c3-c3c(cc(O)c(O)c3O)C(=O)O[C@H]([C@H]1O)[C@@H]2O)c1cc(O)c(O)c(O)c1` [CORILAGIN] gave an IC50 ([1]; read-out: IC50) of 3.45 µM, an EC50 (Hepatitis C virus) of 13.6 µM and a CC50 at 96 h [2] of 96.7 µM. The selectivity ratio [3] was 7.1.

With `COc1cc(O[C@@H]2O[C@H](CO[C@@H]3O[C@H](C)[C@@H](O)[C@H](O)[C@@H]3O)[C@@H](O)[C@H](O)[C@H]2O)ccc1O` [CUNEATASIDES D] the IC50 [1] was greater than 10 µg/mL.

`O=c1oc2c(O)c(O[C@@H]3OC[C@@H](O)[C@H](O)[C@H]3O)cc3c(=O)oc4c(O)c(O)cc1c4c23` [ELLAGIC ACID 4-O-XYLOPYRANOSIDE] gave an IC50 [1] greater than 10 µg/mL.

With `OC[C@H]1O[C@@H](Sc2c(O)cc(O)c3c2O[C@H](c2ccc(O)c(O)c2)[C@@H](O)C3)[C@H](O)[C@@H](O)[C@@H]1O` [EXCOECARIPHENOL A] the IC50 [1] was greater than 10 µg/mL.

For `OC[C@H]1O[C@@H](Sc2c(O)cc(O)c3c2O[C@H](c2cc(O)c(O)c(O)c2)[C@@H](O)C3)[C@H](O)[C@@H](O)[C@@H]1O` [EXCOECARIPHENOL B], the IC50 [1] was greater than 10 µg/mL.

Work on `COC(=O)Cc1c(C(=O)O[C@H]2[C@H](OC(=O)c3cc(O)c(O)c(O)c3)O[C@@H]3COC(=O)c4cc(O)c(O)c(O)c4-c4c(cc(O)c(O)c4O)C(=O)O[C@H]2[C@@H]3O)cc(O)c(O)c1O` [EXCOECARIPHENOL C] yielded an IC50 [1] greater than 10 µg/mL.

Compound `O=C(O[C@@H]1O[C@@H]2COC(=O)c3cc(O)c(O)c4oc5c(O)c(O)cc(c5c34)C(=O)O[C@@H]3[C@H]1OC(=O)c1cc(O)c(O)c4c1[C@@H]1[C@@]5(C[C@]6(O)OC[C@@H](O)[C@@H]6O[C@@H]5C(O)(O)C(O)(O)[C@]1(O)O4)C(=O)O[C@@H]32)c1cc(O)c(O)c(O)c1` [EXCOECARIPHENOL D] has an IC50 ([1]; read-out: IC50) of 6.93 µM, an EC50 (Hepatitis C virus) of 12.6 µM and a CC50 at 96 h [2] of 56.2 µM. It also gave a selectivity ratio [3] of 4.5.

With `O=C1O[C@H]2[C@H](O)[C@@H](OC(=O)c3cc(O)c(O)c4c3[C@@H]3C1=CC(=O)C(O)(O)C3(O)O4)[C@H](OC(=O)c1cc(O)c(O)c(O)c1)O[C@@H]2CO` (stereo partly drawn) [FUROSIN] the IC50 [1] was greater than 10 µg/mL.

In the case of `Oc1cc(O)c2c(c1)O[C@H](c1cc(O)c(O)c(O)c1)[C@@H](O)C2` [GALLOCATECHIN], the IC50 [1] is reported as greater than 10 µg/mL.

`O=C1O[C@H]2[C@@H]3OC(=O)c4cc(O)c(O)c(O)c4-c4c(cc(O)c(O)c4O)C(=O)OC[C@H]2O[C@@H](OC(=O)c2cc(O)c(O)c(O)c2)[C@@H]3OC(=O)c2cc(O)c(O)c3c2[C@@H]2C1=CC(=O)[C@](O)(O3)C2(O)O` [GERANIIN] gave an IC50 ([1]; read-out: IC50) of 8.91 µM, an EC50 (Hepatitis C virus) of 33.2 µM and a CC50 at 96 h [2] of 63.4 µM. It also gave a selectivity ratio [3] of 1.9.

Work on `C[C@@H]1O[C@@H](OC[C@H]2O[C@@H](OCc3ccccc3)[C@H](O)[C@@H](O)[C@@H]2O)[C@H](O)[C@H](O)[C@H]1O` [HYDRANGEIFOLIN I] yielded an IC50 [1] greater than 10 µg/mL.

With `O=c1c(O[C@@H]2O[C@H](CO)[C@@H](O)[C@H](O)[C@H]2O)c(-c2ccc(O)c(O)c2)oc2cc(O)cc(O)c12` [ISOQUERCETIN] the IC50 [1] was greater than 10 µg/mL.

Work on `COc1cc(O[C@@H]2O[C@H](CO)[C@@H](O)[C@H](O)[C@H]2O)cc(OC)c1O` [KOABURASIDE] yielded an IC50 [1] greater than 10 µg/mL.
